According to patent publication US9776990B2, “Isoindolone derivatives” (AbbVie Inc., priority 2012, dated 2017):
Marks after values point to notes of the source that are not given here.

Key:
[1] = system: HepG2; assay: Proliferation panel assay, HepG2; type: cell-based; settings: Homo sapiens, 120 h; Hepatocellular, HepG2, 5 days; read-out: Cellular Proliferation EC50
Experimental: (§1) The impact of compounds of the Examples on cancer cell proliferation was determined using the breast cancer cell line MX-1 (ATCC) in a 3-day proliferation assay. MX-1 cells were maintained in RPMI supplemented with 10% FBS at 37 C.° and an atmosphere of 5% CO2. For compound testing, MX-1 cells were plated in 96-well black bottom plates at a density of 5000 cells/well in 90 μl of culture media and incubated at 37° overnight to allow cell adhesion and spreading. Compound dilution series were prepared in DMSO via a 3-fold serial dilution from 3 mM to 0.1 μM. […]
(§2) Luminescence readings from the Cell Titer Glo assay were normalized to the DMSO treated cells and analyzed using the GraphPad Prism software with sigmoidal curve fitting to obtain EC50s. The minimum significant ratio (MSR) was determined to evaluate assay reproducibility (Eastwood et al., (2006) J Biomol Screen, 11: 253-261). The overall MSR was determined to be 2.1 and a moving MSR (last six run MSR overtime) has been <2.
(§3) The compound of Example 40 was tested for its impact on proliferation of a panel of cancer cell line types (with specific cell lines tested) as set out in (Table 2). […] Cell proliferation data were analyzed as described above in the MX-1 proliferation assay to obtain the EC50 for the compounds reported in Table 2.

[2] = system: PC3M; assay: Proliferation panel assay, PC3M; type: cell-based; settings: Homo sapiens, PC-3M, 120 h, Prostate, 5 days, read-out: Cellular Proliferation EC50
Experimental: as §1, §2, §3

[3] = system: HT1080 human fibrosarcoma xenograft; assay: Xenograft tumor growth inhibition assay, HT1080; type: in vivo, mice; settings: BID x 14, based on day 18
Experimental: (§4) The effect of the compound of Example 40 to inhibit the growth of Ramos, OPM-2, MX-1, MV4-11, and HT1080 xenograft tumors was evaluated. Briefly, 0.5×10^6 human cancer cells (HT1080), 1×10^6 human cancer cells (Ramos), 5×10^6 human cancer cells (OPM-2, MV4-11) or 1:10 tumor brie (MX-1) (in S-MEM (MEM, Suspension, no Calcium, no Glutamine)) (Life Technologies Corporation) were inoculated subcutaneously into the right hind flank of female SCID or SCID-beige (MV4-11, HT1080) mice (Charles Rivers Labs) on study day 0. Compound was formulated in 2% EtOH, 5% Tween-80, 20% PEG-400, 73% HPMC (Ramos, OPM-2 and MX-1) or 5% DMSO, 5% EtOH, 30% PEG400, 60% Phosal 53 (MV4-11, HT1080). Administration of compound was initiated at the time of size match on day 8 (HT1080), day 17 (MX-1), or day 18 (Ramos, MV4-11, OPM-2). The tumors were measured by a pair of calipers twice a week starting at the time of size match and tumor volumes were calculated according to the formula V=L×W^2/2 (V: volume, mm^3; L: length, mm. W: width, m) Tumor volume was measured for the duration of the experiment until the mean tumor volume in each group reached an endpoint of >1000 mm^3.

[4] = system: RPMI-8226; assay: Proliferation panel assay, RPMI-8226; type: cell-based; settings: Homo sapiens, 120 h; Multiple Myeloma, RPMI-8226, 5 days; read-out: Cellular Proliferation EC50
Experimental: as §1, §2, §3

[5] = system: MX-1 human breast cancer xenograft; assay: Xenograft tumor growth inhibition assay, MX-1; type: in vivo, mice; settings: MX-1 xenograft; for % TGI (tumor growth inhibition): QDx14, based on day 38; for % TGD (tumor growth delay): QDx14, endpoint 1000 mm^3
Experimental: as §4

[6] = system: H460; assay: Proliferation panel assay, H460; type: cell-based; settings: Homo sapiens, NCI-H460, 120 h; NSCLC, H460, 5 days; read-out: Cellular Proliferation EC50
Experimental: as §1, §2, §3

[7] = system: MDAMB453; assay: Proliferation panel assay, MDAMB453; type: cell-based; settings: Homo sapiens, MDA-MB-453, 120 h; Breast, MDAMB453, 5 days; read-out: Cellular Proliferation EC50
Experimental: as §1, §2, §3

[8] = system: H1299; assay: Proliferation panel assay, H1299; type: cell-based; settings: Homo sapiens, NCI-H1299, 120 h; NSCLC, H1299, 5 days; read-out: Cellular Proliferation EC50
Experimental: as §1, §2, §3

Cc1[nH]c(-c2cc(NS(C)(=O)=O)ccc2Oc2ccccc2)c2c1C(=O)CCC2 [Example 40, N-[3-(3-methyl-4-oxo-4,5,6,7-tetrahydro-2H-isoindol-1-yl)-4-phenoxyphenyl]methanesulfonamide]
EC50 [1]: 320 nM | EC50 [2]: 410 nM | % TGI (tumor growth inhibition) ([3]; 10 mg/kg/day PO): −1% | % TGI (tumor growth inhibition) ([3]; 30 mg/kg/day PO): 14% | % TGI (tumor growth inhibition) ([3]; 100 mg/kg/day PO): 52** % | EC50 [4]: 94 nM | % TGI (tumor growth inhibition) ([5]; group 2, 100 mg/kg/day PO): 78*** % | % TGD (tumor growth delay) ([5]; group 2, 100 mg/kg/day PO): 29*** % | % TGI (tumor growth inhibition) ([5]; group 3, 30 mg/kg/day PO): 48*** % | % TGD (tumor growth delay) ([5]; group 3, 30 mg/kg/day PO): 22*** % | % TGI (tumor growth inhibition) ([5]; group 4, 10 mg/kg/day PO): 18% | % TGD (tumor growth delay) ([5]; group 4, 10 mg/kg/day PO): 17% | % TGI (tumor growth inhibition) ([5]; group 5, 100 mg/kg/day PO): 80*** % | % TGD (tumor growth delay) ([5]; group 5, 100 mg/kg/day PO): 28*** % | % TGI (tumor growth inhibition) ([5]; group 6, 20 mg/kg/day PO): 30* % | % TGD (tumor growth delay) ([5]; group 6, 20 mg/kg/day PO): 19* % | EC50 [6]: > 10000 nM | EC50 [7]: 220 nM | EC50 [8]: 360 nM
